From US20230416199A1, “INHIBITORS OF AMINO ACID TRANSPORT” (ICAHN SCHOOL OF MEDICINE AT MOUNT SINAI, priority 2020, published 2023)

Experiments:
Type in all cases: cell-based
hASCT2 = target: T1, hASCT2 (Homo sapiens, UniProt Q15758); assay: Electrophysiology (whole-cell current recording) of transfected HEK293 cells, hASCT2; settings: apparent Ki in the absence of substrate, HEK293, mean ± SD; read-out: Ki hASCT2
T1 construct: expressed in transfected cells; host or cells: HEK293 (ATCC CRL-11268), transient transfection
T1 sequence (Q15758 1-541): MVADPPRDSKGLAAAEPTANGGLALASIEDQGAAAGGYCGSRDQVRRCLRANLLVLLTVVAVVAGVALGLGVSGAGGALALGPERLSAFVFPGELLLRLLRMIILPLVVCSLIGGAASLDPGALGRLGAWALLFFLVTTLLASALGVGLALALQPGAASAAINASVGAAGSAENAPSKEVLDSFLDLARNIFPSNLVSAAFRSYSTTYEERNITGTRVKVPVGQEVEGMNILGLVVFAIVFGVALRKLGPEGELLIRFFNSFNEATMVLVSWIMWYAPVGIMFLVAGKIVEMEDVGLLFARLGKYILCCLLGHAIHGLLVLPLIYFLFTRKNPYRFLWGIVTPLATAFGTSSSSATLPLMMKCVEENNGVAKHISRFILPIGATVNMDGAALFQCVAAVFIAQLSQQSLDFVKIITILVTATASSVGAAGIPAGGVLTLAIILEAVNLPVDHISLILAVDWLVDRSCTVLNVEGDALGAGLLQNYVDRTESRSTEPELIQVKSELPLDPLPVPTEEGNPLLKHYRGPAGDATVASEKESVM
Description: (§1) Human embryonic kidney 293 (HEK293, ATCC CRL-11268) cells were cultured in DMEM media supplemented with 10% (v v) fetal bovine serum (FBS), 2 mM glutamine, 1% penicillin streptomycin solution, 1 mM sodium pyruvate and non-essential amino acids. Cells were maintained at 37° C. in a fully humidified atmosphere containing 5% CO2. rASCT2, hASCT2, hASCT1, EAAT1, EAAT2, EAAC1, EAAT5 and YFP complementary DNAs were each used to transiently transfect HEK293 using POLYPLUS Jet-prime transfection reagent. Cells were analyzed using electrophysiological techniques 24-40 hours after transfection.
(§2) Stock solutions of inhibitor was prepared in dimethyl sulfoxide (DMSO) up to 100 mM. Dilutions to working concentrations were made using external buffer. […] For rASCT2, hASCT2 and hASCT1, external buffer contained 140 mM NaCl, 2 mM MgCl2, 2 mM CaCl2), and 10 mM HEPES, pH 7.40 while internal pipette solution comprised of 130 mM NaSCN, 2 mM MgCl2, 10 mM EGTA, 10 mM HEPES and 10 mM alanine, pH 7.40. For specificity experiments with EAAT1, EAAT2, EAAC1 and EAAT5, internal solution contained 10 mM glutamate instead of alanine. Compounds were applied to HEK293 cells expressing DNA of interest suspended from a current recording electrode in whole cell configuration through a rapid solution exchange device. Cells are immersed in external buffer bath used to dissolve the inhibitors. The open pipette resistance was between 3 and 6 MΩ. Series resistance was not compensated in these experiments due to relatively small currents. Currents traces were recorded using an Adams and List EPC7 amplifier and digitized using a Molecular Devices Digidata A/D converter.
(§3) Linear and nonlinear curve fitting of the experimental data were analyzed using MicroCal Origin software. Nonlinear dose-response relationships were fitted with a Michaelis-Menten-like equation to obtain apparent Ki values in the absence of substrate (see TABLE 2 for Ki values). The figures show representative current traces and dose-response curves for hACST2 and rASCT2, used to obtain Ki values in TABLE 2 for compound SN 40. At least four experiments were performed with at least three different cells. Error bars in all graphs, e.g., in FIG. 1B and FIG. 1C and tables (Ki values) represent mean±SD.

EAAC1 = target: T2, EAAC1 (UniProt P51907); assay: Electrophysiology specificity experiment in transfected HEK293 cells, EAAC1; settings: apparent Ki, HEK293, internal solution 10 mM glutamate, mean ± SD
T2 construct: Ki EAAC1; other: apparent Ki, HEK293, internal solution 10 mM glutamate, mean ± SD
T2 sequence (P51907 1-523): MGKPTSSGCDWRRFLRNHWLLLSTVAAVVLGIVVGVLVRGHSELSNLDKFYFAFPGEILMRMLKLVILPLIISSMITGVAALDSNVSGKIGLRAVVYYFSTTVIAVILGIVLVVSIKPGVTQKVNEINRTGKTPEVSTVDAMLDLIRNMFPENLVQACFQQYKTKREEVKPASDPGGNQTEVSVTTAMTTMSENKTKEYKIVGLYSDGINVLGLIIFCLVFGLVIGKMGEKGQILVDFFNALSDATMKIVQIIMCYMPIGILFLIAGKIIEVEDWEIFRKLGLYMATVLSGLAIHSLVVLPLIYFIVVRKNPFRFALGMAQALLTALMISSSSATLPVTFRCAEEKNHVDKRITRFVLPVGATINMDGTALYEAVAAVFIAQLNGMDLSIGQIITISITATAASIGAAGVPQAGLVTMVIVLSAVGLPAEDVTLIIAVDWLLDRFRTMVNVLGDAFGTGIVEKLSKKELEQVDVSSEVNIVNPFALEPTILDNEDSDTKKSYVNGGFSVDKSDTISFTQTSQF
Description: Cells were maintained at 37° C. in a fully humidified atmosphere containing 5% CO2. rASCT2, hASCT2, hASCT1, EAAT1, EAAT2, EAAC1, EAAT5 and YFP complementary DNAs were each used to transiently transfect HEK293 using POLYPLUS Jet-prime transfection reagent. Cells were analyzed using electrophysiological techniques 24-40 hours after transfection.
as §2
as §3, with “The figures show representative current traces and dose-response curves for hACST2 and rASCT2, used to obtain Ki values in TABLE 2 for compound SN 40.” left out

EAAT5 = target: T3, EAAT5 (Homo sapiens, UniProt O00341); assay: Electrophysiology specificity experiment in transfected HEK293 cells, EAAT5; settings: apparent Ki, HEK293, internal solution 10 mM glutamate, mean ± SD
T3 construct: expressed in transfected cells; host or cells: HEK293 (ATCC CRL-11268), transient transfection
T3 sequence (O00341 whole entry, species assumed): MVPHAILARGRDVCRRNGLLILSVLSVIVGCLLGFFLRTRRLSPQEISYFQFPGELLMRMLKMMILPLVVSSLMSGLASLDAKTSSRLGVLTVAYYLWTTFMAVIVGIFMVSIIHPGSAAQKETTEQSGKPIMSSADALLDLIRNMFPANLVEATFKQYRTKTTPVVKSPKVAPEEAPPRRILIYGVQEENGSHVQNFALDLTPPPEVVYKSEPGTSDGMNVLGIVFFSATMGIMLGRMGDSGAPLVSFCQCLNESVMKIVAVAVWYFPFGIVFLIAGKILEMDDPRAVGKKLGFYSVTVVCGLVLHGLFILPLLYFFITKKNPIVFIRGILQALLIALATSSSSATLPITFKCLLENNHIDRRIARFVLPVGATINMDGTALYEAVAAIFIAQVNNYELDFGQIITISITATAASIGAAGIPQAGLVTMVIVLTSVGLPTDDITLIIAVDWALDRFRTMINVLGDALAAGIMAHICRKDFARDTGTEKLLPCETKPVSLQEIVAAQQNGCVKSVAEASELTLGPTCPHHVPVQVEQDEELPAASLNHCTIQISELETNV
Description: as §1, §2, §3

Structure (SMILES) | Ki (hASCT2) | Ki (EAAC1) | Ki (EAAT5)
O=C(O)[C@@H]1C[C@H](OCc2ccc(-c3ccccc3)cc2)CN1 [SN 39] | 0.98 ± 0.1 µM | 1.27 ± 0.2 µM | 1.41 ± 0.3 µM
Cc1ccccc1-c1ccc(C(=O)O[C@@H]2CN[C@H](C(=O)O)C2)cc1 [SN 10] | 1.12 ± 0.1 µM | 1.99 ± 0.4 µM | 2.5 ± 0.9 µM
O=C(O[C@@H]1CN[C@H](C(=O)O)C1)c1ccc(-c2ccccc2)nc1 [SN 19] | 7.93 ± 0.9 µM | 14.2 ± 0.7 µM | –
O=C(O[C@@H]1CN[C@H](C(=O)O)C1)c1ccc(-c2ccccc2)cc1 [SN 05] | 0.87 ± 0.1 µM | 7.23 ± 1.4 µM | 2.22 ± 0.5 µM
O=C(O[C@@H]1CN[C@H](C(=O)O)C1)c1ccc(-c2ccc(F)cc2)cc1 [SN 08] | 0.74 ± 0.1 µM | 0.69 ± 0.1 µM | 2.4 ± 0.7 µM

Next, values leading:

Ki (hASCT2) | Ki (EAAC1) | Ki (EAAT5) | Structure (SMILES)
1.05 ± 0.2 µM | 1.25 ± 0.2 µM | 1.09 ± 0.2 µM | O=C(O[C@@H]1CN[C@H](C(=O)O)C1)c1ccc(-c2ccc(C(F)(F)F)cc2)cc1 [SN 09]
9.13 ± 1.7 µM | 0.95 ± 0.2 µM | 1.17 ± 0.1 µM | Cc1ccccc1-c1ccc(C(=O)O[C@@H]2CN[C@H](C(=O)O)C2)cc1C [SN 11]
22.6 ± 3.7 µM | 12.3 ± 1.9 µM | 12.3 ± 3.2 µM | N[C@@H](COC(=O)c1ccc(NC(=O)c2ccccc2)cc1)C(=O)O [SN 25]
